Assay results reported in US20060194826A1, “Pharmaceutical combinations of hydrocodone and naltrexone” (EURO-CELTIQUE S.A., priority 2003, published 2006).
“Also recorded” adds a separate entry of the source.

Legend:
[1] = system: normal, healthy, adult male and female volunteers; test: Safety assessment (Example 5)
Description: (§1) In Example 5, a single center, placebo controlled, double-blind, randomized 9-treatment, 3 period crossover trial with an open-label screening phase was conducted.

[2] = system: subjects receiving methadone maintenance therapy; test: Double-blind crossover, subjective and physiologic opioid agonist/antagonist measures (Example 6)
[3] = system: minute ventilation in normal, healthy, adult male and female volunteers; test: CO2 rebreathing test, double-blind crossover trial (Example 5); assay type: in vivo, human; details: oral NTX 0.125 to 8.0 mg with 15, 20 or 25 mg oral HYIR
Description: as §1

[4] = system: subjects on methadone maintenance therapy; test: Open-label naltrexone titration safety assessment (Example 6); assay type: in vivo, human; details: 2 subjects, 30 mg hydrocodone at 0 hr, naltrexone at hourly intervals, oral
Description: Example 6 consisted of open-label and double-blind treatment phases conducted in male and female subjects receiving daily oral methadone maintenance doses from 60 to 90 mg. The methadone maintenance dose was given to the subject the day before each scheduled period. Administration of study medication occurred no sooner than 16 hours and no later than 22 hours after the methadone maintenance dose was given. 14 subjects were enrolled in the study (2 subjects, open-label phase (ascending dose naltrexone safety assessment) and 12 subjects, double-blind phase).
The open-label phase was a safety assessment of the 2 naltrexone doses (0.75 and 2.0 mg) planned in the protocol in subjects on methadone maintenance therapy. This phase of the study consisted of a screening visit conducted up to 14 days before administration of study drug, and a naltrexone titration visit. During the naltrexone titration visit, 2 subjects were to receive 30 mg of hydrocodone and 0.125 mg of naltrexone at 0 hr, with additional doses of naltrexone, up to a cumulative dose of 2.0 mg, administered at hourly intervals over the next 4 hours. In the open-label phase, neither subject received more than a 1.0-mg cumulative dose of naltrexone before rescue with methadone was required. […]

[5] = system: subjects receiving methadone maintenance therapy; test: Safety measures, double-blind phase (Example 6); assay type: in vivo, human; details: with increasing NTX dose; most mild or moderate
[6] = system: healthy volunteers with hyperalgesia; test: Thermal Discomfort and Pain Latency testing (Example 7); assay type: in vivo, human
Description: (§2) Example 7 consisted of a single center trial conducted as a placebo-controlled, double-blind, randomized, 4-treatment, 4-period crossover study, which included a single-blind phase. Each treatment sequence consisted of 4 treatment periods, each of 4 hours duration, separated by at least a 5-day washout interval. […] The total duration of this study, including screening, was approximately 52 days.
(§3) After at least 5 days, those subjects who successfully completed the single-blind phase were randomized into the double-blind phase of the study. Healthy male and female volunteers were enrolled in this study.
A test site and a control site were selected on each forearm and marked with a washable marker. Next, the topical anesthetic was applied to the test site. After approximately 1.5 hours (allowing for the anesthetic to take effect), the cream was removed and a thermal stimulus was applied to the test site for 3 minutes using a copper mass heated to 52° C. […]
Thermal Discomfort testing was designed to measure a subject's perception of discomfort following a 5-second contact with a warmed 1″ diameter copper mass (Uniformed Services University of the Health Sciences, Bethesda, Md.). […] The distance from the left anchor to the vertical mark was measured and was used as the quantitative measure of Thermal Discomfort. […]

[7] = system: healthy volunteers with hyperalgesia; test: Pupillometry (Example 7); assay type: in vivo, human
Description: Each treatment sequence consisted of 4 treatment periods, each of 4 hours duration, separated by at least a 5-day washout interval. […] The total duration of this study, including screening, was approximately 52 days.
as §3
(§4) The same test measurements conducted at baseline were then conducted at 0.5, 1, 2, 3, and 4 hours postdosing. Thermal Discomfort and Pain Latency testing were conducted at each time point on the control site (area on the other forearm, which was not subjected to the thermal stimulus). Testing on the control site was done prior to the test site for each time point. Each subject rested and recovered for no less than 5 days before returning for the next period. In the follow-up phase, subjects returned to the clinic within 7 days after completion of the study for a final check of the test site and a review of the subject's laboratory data prior to official discharge from the study.
Pupillometry was performed to measure the effect of the study treatment on pupil diameter. The pupil was photographed using a Polaroid One-Step Closeup Camera (Polaroid Corporation, Cambridge, Mass.) with modified 2× magnification oculars (John Hopkins University, Baltimore, Md.) and Polaroid 600 color film (Polaroid Corporation, Cambridge, Mass.). […] The camera was positioned on the subject's eye socket, aligning the iris with the middle of the opening of the lens adapter. The pupil diameter was measured from the photograph, in millimeters, using Model CD-6C Mitutoyo digital calipers (Judge Tool Sales, Southport, Conn.). The same eye was measured at all times for each subject.

[8] = system: healthy volunteers with hyperalgesia; test: Subjective Symptom Rating Scale and Drug Rating Questionnaire (Example 7); assay type: in vivo, human
Description: as §2, §3, §4
The Symptom Rating Scale Questionnaire consisted of 25 items. […]

healthy volunteers = test: Safety and adverse events (Example 7); assay type: in vivo, human
Description: as §2
An AE (adverse event) was defined as any unfavorable and unintended sign (including abnormal laboratory findings), symptom or disease temporally associated with the use of a medicinal product, whether or not considered related to the medicinal product. An AE was classified as a TEAE (treatment emergent adverse event) only if the AE occurred after the first dose of the study drug was administered to a subject who was enrolled in the study. The period of observation for TEAEs was from the time that the first dose of study medication was administered until release from the study after completion of period 4 or at early discontinuation. All AEs reported by the subject or observed by the investigator/study staff were fully documented throughout the study. When AEs were encountered that required medical intervention, appropriate supportive and/or definitive therapy was provided by appropriately qualified and licensed medical personnel. […]

[9] = 0.25-mg NTX dose with 30 mg HYIR
[10] = 0.5-mg NTX dose with 30 mg HYIR

SMILES: COc1ccc2c3c1O[C@H]1C(=O)CC[C@H]4[C@@H](C2)N(C)CC[C@]314.O=C(O)C(O)C(O)C(=O)O [HYIR, Hydrocodone bitartrate]
- safety concerns ([1]; 15-, 20-, or 25-mg doses of HYIR): no new safety concerns
- changes from predose in all pharmacodynamic variables ([2]; 30 mg HYIR plus NTX placebo): minimal changes from predose
- subjects requiring a rescue dose of methadone ([2]; 30 mg HYIR plus NTX placebo): 4 of the 12
- subjective or physiologic opioid agonist activity ([2]; 30-mg oral dose of HYIR): did not produce significant subjective or physiologic opioid agonist activity
- trend of treatment means (PDmax and AUC) over the 3 periods, FIGS. 1-12 ([2]; HYIR+NTX placebo treatment): increase in subjective and physiologic opioid agonist effects

SMILES: O=C1CC[C@@]2(O)[C@H]3Cc4ccc(O)c5c4[C@@]2(CCN3CC2CC2)[C@H]1O5 [NTX, Naltrexone HCI]
- effect on HYIR-induced respiratory depression (% MPE20, % MPE30, double-blind MPE20 and MPE30) [3]: statistically significant trend toward less respiratory depression; also recorded: blocked respiratory depression
- safety concerns ([1]; NTX 0.125 to 8.0 mg combined with 15, 20 or 25 mg HYIR): no new safety concerns
- cumulative dose of naltrexone received before rescue with methadone was required [4]: ≤ 1.0 mg
- treatment-emergent adverse events commonly associated with opioid withdrawal per subject [5]: increase in the number of treatment-emergent adverse events
- difference vs HYIR+placebo NTX in mean Thermal Discomfort VAS scores, Pain Latency, derived pharmacodynamic metrics of hyperalgesia ([6]; 15 mg HYIR + 0.25-, 0.5-, or 1.0-mg NTX, oral): no statistically significant differences
- reduction of the analgesia produced by 15 mg oral HYIR (Thermal Discomfort VAS scores and Pain Latency testing) ([6]; NTX 0.25, 0.5, or 1.0-mg): None of the doses of NTX used in this study (0.25, 0.5, or 1.0-mg) produced a statistically significant reduction
- statistically significant increase in pupil diameter PDmax compared with HYIR+placebo NTX ([7]; HYIR+0.5 mg NTX and HYIR+1.0-mg NTX): not
- NTX dose-related effect on the physiologic opioid agonist activity of the 15-mg dose of HYIR ([7]; NTX 0.25, 0.5, 1.0 mg): no consistent NTX dose-related effect
- HYIR-induced pupil constriction ([7]; all NTX doses (0.25, 0.5, 1.0 mg) with 15 mg HYIR): reduced HYIR-induced pupil constriction
- subjective opioid agonist effects of HYIR (Subjective Symptom Rating Scale and Subjective Drug Rating Questionnaire) ([8]; 15 mg HYIR with placebo, 0.25, 0.5 or 1.0 mg NTX): no statistically significant differences among the treatments or consistent NTX dose-related trends
- NTX dose-related effect on the subjective opioid agonist activity of the 15-mg dose of HYIR ([8]; NTX 0.25, 0.5, 1.0 mg): no consistent NTX dose-related effect
- number of reported TEAEs commonly associated with opioid use (healthy volunteers; 15 mg HYIR with increasing NTX dose): decreased with increased NTX dose
- safety concerns (healthy volunteers; 15 mg of oral HYIR combined with 0.25, 0.5, or 1.0-mg NTX): no safety concerns
- aversive effects in methadone-maintained subjects ([2]; 0.25- and 0.5-mg oral NTX doses): elicit aversive effects
- negative feeling states and antagonist activity (precipitated withdrawal) [2, 9]: threshold dose with a trend toward negative feeling states
- subjects requiring a rescue dose of methadone [2, 9]: Approximately 60%
- difference from NTX placebo treatment in mean PDmax, all queries except "Feeling sick" [2, 10]: statistically significant differences
- precipitated withdrawal (Drug Effects Scales, antagonist total score, pupil diameter vs NTX placebo) [2, 10]: strong evidence of precipitated withdrawal
- subjects requiring a rescue dose of methadone [2, 10]: ~90%
- negative feeling states and precipitated withdrawal, dose dependence ([2]; NTX 0.25 and 0.5 mg with 30 mg HYIR): dose-dependent increases in negative feeling states and precipitated withdrawal
- effect on all secondary pharmacodynamic variables except the agonist total scores from the Subjective and Observer Symptom Rating Scales ([2]; NTX 0.25 and 0.5 mg with 30 mg HYIR, not always statistically significant): dose-related effect
- effect on mean PDmax values for all 4 queries on the Subjective Drug Effects Scale ([2]; NTX 0.25 to 0.5 mg with 30 mg HYIR): dose-related effect
- appeal and abuse liability potential of HYIR ([2]; low dose NTX added to HYIR, subjects physically dependent on opioids): decreased the appeal
